# Reference: the OligoGym collection
# Where “and” joins values, the source holds several entries; their conditions need not be identical. Identical values can stand only once. HELM strings list units from the 5' end as sugar, base in round brackets, then linkage (d deoxyribose, r ribose, m 2'-O-methyl, p phosphodiester). Methylation of C is not given here. [moe] = 2'-O-(2-methoxyethyl) (MOE); [cEt] = constrained ethyl (cEt); [sp] = phosphorothioate linkage
# Target: HBV
# Settings: ASO
Substance,"target mRNA inhibition (HepG2, 0.07 µM)",other results
RNA1{[moe](G)[sp].[moe](T)[sp].d(G)[sp].d(A)[sp].d(A)[sp].d(G)[sp].d(C)[sp].d(G)[sp].d(A)[sp].d(A)[sp].d(G)[sp].[moe](T)[sp].[moe](G)[sp].[moe](C)[sp].[moe](A)[sp].[moe](C)}$$$$V2.0,68% and 60%,
RNA1{[moe](G)[sp].[moe](G)[sp].[moe](C)[sp].[moe](A)[sp].d(T)[sp].d(A)[sp].d(G)[sp].d(C)[sp].d(A)[sp].d(G)[sp].d(C)[sp].d(A)[sp].d(G)[sp].[moe](G)[sp].[moe](A)[sp].[moe](T)[sp].[moe](G)}$$$$V2.0,57% and 53%,
RNA1{[moe](A)[sp].[moe](G)[sp].[moe](C)[sp].d(G)[sp].d(A)[sp].d(A)[sp].d(G)[sp].d(T)[sp].d(G)[sp].d(C)[sp].d(A)[sp].d(C)[sp].[moe](A)[sp].[moe](C)[sp].[moe](G)[sp].[moe](G)}$$$$V2.0,79% and 70%,"target mRNA inhibition (HepG2, 0.0092593 µM): 11%; target mRNA inhibition (HepG2, 0.0277778 µM): 34%; target mRNA inhibition (HepG2, 0.0833333 µM): 66%; target mRNA inhibition (HepG2, 0.25 µM): 87%"
RNA1{[moe](G)[sp].[moe](T)[sp].[moe](T)[sp].[moe](C)[sp].d(C)[sp].d(G)[sp].d(C)[sp].d(A)[sp].d(G)[sp].d(T)[sp].d(A)[sp].d(T)[sp].d(G)[sp].[moe](G)[sp].[moe](A)[sp].[moe](T)}$$$$V2.0,57% and 45%,
RNA1{[moe](T)[sp].[moe](G)[sp].[moe](C)[sp].d(A)[sp].d(G)[sp].d(A)[sp].d(G)[sp].d(G)[sp].d(T)[sp].d(G)[sp].d(A)[sp].d(A)[sp].[moe](G)[sp].[moe](C)[sp].[moe](G)[sp].[moe](A)[sp].[moe](A)}$$$$V2.0,75% and 63%,
RNA1{[moe](A)[sp].[moe](G)[sp].[moe](G)[sp].d(T)[sp].d(G)[sp].d(A)[sp].d(A)[sp].d(G)[sp].d(C)[sp].d(G)[sp].d(A)[sp].d(A)[sp].[moe](G)[sp].[moe](T)[sp].[moe](G)[sp].[moe](C)[sp].[moe](A)}$$$$V2.0,77% and 71%,
RNA1{[moe](C)[sp].[cEt](C)[sp].d(A)[sp].d(A)[sp].d(T)[sp].d(T)[sp].d(T)[sp].d(A)[sp].d(T)[sp].d(G)[sp].d(C)[sp].d(C)[sp].[cEt](T)[sp].[moe](A)[sp].[cEt](C)[sp].[moe](A)}$$$$V2.0,37% and 55%,
RNA1{[moe](C)[sp].[moe](A)[sp].d(A)[sp].d(T)[sp].d(T)[sp].d(T)[sp].d(A)[sp].d(T)[sp].d(G)[sp].d(C)[sp].d(C)[sp].[moe](T)[sp].[moe](A)[sp].[moe](C)[sp].[moe](A)[sp].[moe](G)}$$$$V2.0,27% and 25%,
RNA1{[moe](T)[sp].[moe](T)[sp].[moe](C)[sp].[moe](C)[sp].d(G)[sp].d(C)[sp].d(A)[sp].d(G)[sp].d(T)[sp].d(A)[sp].d(T)[sp].d(G)[sp].d(G)[sp].[moe](A)[sp].[moe](T)[sp].[moe](C)[sp].[moe](G)}$$$$V2.0,56% and 38%,
RNA1{[moe](G)[sp].[cEt](A)[sp].[cEt](G)[sp].d(A)[sp].d(G)[sp].d(A)[sp].d(A)[sp].d(G)[sp].d(T)[sp].d(C)[sp].d(C)[sp].d(A)[sp].d(C)[sp].[cEt](C)[sp].[cEt](A)[sp].[moe](C)}$$$$V2.0,65% and 63%,
RNA1{[moe](C)[sp].[moe](G)[sp].[moe](A)[sp].d(A)[sp].d(C)[sp].d(C)[sp].d(A)[sp].d(C)[sp].d(T)[sp].d(G)[sp].d(A)[sp].d(A)[sp].[moe](C)[sp].[moe](A)[sp].[moe](A)[sp].[moe](A)}$$$$V2.0,48% and 28%,
RNA1{[moe](A)[sp].[cEt](G)[sp].[cEt](C)[sp].d(T)[sp].d(T)[sp].d(G)[sp].d(G)[sp].d(A)[sp].d(G)[sp].d(G)[sp].d(C)[sp].d(T)[sp].d(T)[sp].[cEt](G)[sp].[cEt](A)[sp].[moe](A)}$$$$V2.0,5% and 0%,
RNA1{[moe](A)[sp].[moe](G)[sp].[moe](A)[sp].[moe](T)[sp].[moe](G)[sp].d(A)[sp].d(G)[sp].d(G)[sp].d(C)[sp].d(A)[sp].d(T)[sp].d(A)[sp].d(G)[sp].d(C)[sp].[moe](A)[sp].[moe](G)[sp].[moe](C)}$$$$V2.0,41% and 34%,
RNA1{[moe](G)[sp].[moe](G)[sp].[moe](T)[sp].d(G)[sp].d(A)[sp].d(A)[sp].d(G)[sp].d(C)[sp].d(G)[sp].d(A)[sp].d(A)[sp].d(G)[sp].d(T)[sp].[cEt](G)[sp].[cEt](C)[sp].[cEt](A)}$$$$V2.0,72% and 83%,"target mRNA inhibition (HepG2, 0.0092593 µM): 15%; target mRNA inhibition (HepG2, 0.0277778 µM): 42%; target mRNA inhibition (HepG2, 0.0833333 µM): 67%; target mRNA inhibition (HepG2, 0.25 µM): 88%"
RNA1{[moe](A)[sp].[moe](G)[sp].[moe](G)[sp].[moe](C)[sp].[moe](A)[sp].d(T)[sp].d(A)[sp].d(G)[sp].d(C)[sp].d(A)[sp].d(G)[sp].d(C)[sp].d(A)[sp].d(G)[sp].[moe](G)[sp].[moe](A)}$$$$V2.0,66% and 56%,"target mRNA inhibition (HepG2, 0.0092593 µM): 9%; target mRNA inhibition (HepG2, 0.0277778 µM): 13%; target mRNA inhibition (HepG2, 0.0833333 µM): 29%; target mRNA inhibition (HepG2, 0.25 µM): 51%"
RNA1{[moe](T)[sp].[cEt](T)[sp].d(A)[sp].d(T)[sp].d(G)[sp].d(C)[sp].d(C)[sp].d(T)[sp].d(A)[sp].d(C)[sp].d(A)[sp].d(G)[sp].[cEt](C)[sp].[moe](C)[sp].[cEt](T)[sp].[moe](C)}$$$$V2.0,50% and 56%,
RNA1{[moe](C)[sp].[moe](C)[sp].[moe](G)[sp].d(C)[sp].d(A)[sp].d(G)[sp].d(T)[sp].d(A)[sp].d(T)[sp].d(G)[sp].d(G)[sp].d(A)[sp].[moe](T)[sp].[moe](C)[sp].[moe](G)[sp].[moe](G)}$$$$V2.0,75% and 76%,"target mRNA inhibition (HepG2, 0.0092593 µM): 0%; target mRNA inhibition (HepG2, 0.0277778 µM): 23%; target mRNA inhibition (HepG2, 0.0833333 µM): 56%; target mRNA inhibition (HepG2, 0.25 µM): 79%"
RNA1{[moe](C)[sp].[cEt](G)[sp].d(A)[sp].d(A)[sp].d(C)[sp].d(C)[sp].d(A)[sp].d(C)[sp].d(T)[sp].d(G)[sp].d(A)[sp].d(A)[sp].[cEt](C)[sp].[moe](A)[sp].[cEt](A)[sp].[moe](A)}$$$$V2.0,45% and 49%,
RNA1{[moe](A)[sp].[moe](A)[sp].[moe](C)[sp].[moe](C)[sp].[moe](A)[sp].d(C)[sp].d(T)[sp].d(G)[sp].d(A)[sp].d(A)[sp].d(C)[sp].d(A)[sp].d(A)[sp].d(A)[sp].[moe](T)[sp].[moe](G)}$$$$V2.0,24% and 20%,
RNA1{[moe](A)[sp].[cEt](A)[sp].[cEt](T)[sp].d(T)[sp].d(T)[sp].d(A)[sp].d(T)[sp].d(G)[sp].d(C)[sp].d(C)[sp].d(T)[sp].d(A)[sp].d(C)[sp].[cEt](A)[sp].[cEt](G)[sp].[moe](C)}$$$$V2.0,70% and 73%,
RNA1{[moe](A)[sp].[moe](A)[sp].d(G)[sp].d(C)[sp].d(G)[sp].d(A)[sp].d(A)[sp].d(G)[sp].d(T)[sp].d(G)[sp].d(C)[sp].[moe](A)[sp].[moe](C)[sp].[moe](A)[sp].[moe](C)[sp].[moe](G)}$$$$V2.0,70% and 68%,
RNA1{[moe](G)[sp].[moe](A)[sp].[moe](G)[sp].[moe](G)[sp].[moe](C)[sp].d(A)[sp].d(T)[sp].d(A)[sp].d(G)[sp].d(C)[sp].d(A)[sp].d(G)[sp].d(C)[sp].d(A)[sp].[moe](G)[sp].[moe](G)[sp].[moe](A)}$$$$V2.0,47% and 43%,
RNA1{[moe](A)[sp].[moe](A)[sp].[moe](G)[sp].[moe](A)[sp].d(T)[sp].d(G)[sp].d(A)[sp].d(G)[sp].d(G)[sp].d(C)[sp].d(A)[sp].d(T)[sp].d(A)[sp].[moe](G)[sp].[moe](C)[sp].[moe](A)[sp].[moe](G)}$$$$V2.0,44% and 37%,
RNA1{[moe](G)[sp].[moe](C)[sp].[moe](A)[sp].d(C)[sp].d(T)[sp].d(A)[sp].d(G)[sp].d(T)[sp].d(A)[sp].d(A)[sp].d(A)[sp].d(C)[sp].[moe](T)[sp].[moe](G)[sp].[moe](A)[sp].[moe](G)}$$$$V2.0,59%,
RNA1{[moe](A)[sp].[moe](G)[sp].d(C)[sp].d(G)[sp].d(A)[sp].d(A)[sp].d(G)[sp].d(T)[sp].d(G)[sp].d(C)[sp].d(A)[sp].[moe](C)[sp].[moe](A)[sp].[moe](C)[sp].[moe](G)[sp].[moe](G)}$$$$V2.0,79% and 73%,"target mRNA inhibition (HepG2, 0.0092593 µM): 0%; target mRNA inhibition (HepG2, 0.0277778 µM): 30%; target mRNA inhibition (HepG2, 0.0833333 µM): 72%; target mRNA inhibition (HepG2, 0.25 µM): 84%"
RNA1{[moe](G)[sp].[moe](T)[sp].d(T)[sp].d(C)[sp].d(C)[sp].d(G)[sp].d(C)[sp].d(A)[sp].d(G)[sp].d(T)[sp].d(A)[sp].[moe](T)[sp].[moe](G)[sp].[moe](G)[sp].[moe](A)[sp].[moe](T)}$$$$V2.0,56% and 55%,
RNA1{[moe](G)[sp].[moe](G)[sp].[cEt](C)[sp].[cEt](A)[sp].d(T)[sp].d(A)[sp].d(G)[sp].d(C)[sp].d(A)[sp].d(G)[sp].d(C)[sp].d(A)[sp].d(G)[sp].[moe](G)[sp].[cEt](A)[sp].[moe](T)[sp].[moe](G)}$$$$V2.0,,"target mRNA inhibition (HepG2, 0.009375 µM): 27%; target mRNA inhibition (HepG2, 0.01875 µM): 29%; target mRNA inhibition (HepG2, 0.0375 µM): 45%; target mRNA inhibition (HepG2, 0.075 µM): 56%; target mRNA inhibition (HepG2, 0.15 µM): 78%; target mRNA inhibition (HepG2, 0.3 µM): 84%"
RNA1{[moe](T)[sp].[cEt](T)[sp].d(C)[sp].d(C)[sp].d(G)[sp].d(C)[sp].d(A)[sp].d(G)[sp].d(T)[sp].d(A)[sp].d(T)[sp].d(G)[sp].[cEt](G)[sp].[moe](A)[sp].[cEt](T)[sp].[moe](C)}$$$$V2.0,50% and 39%,
RNA1{[moe](G)[sp].[moe](T)[sp].[moe](G)[sp].d(A)[sp].d(A)[sp].d(G)[sp].d(C)[sp].d(G)[sp].d(A)[sp].d(A)[sp].d(G)[sp].d(T)[sp].[moe](G)[sp].[moe](C)[sp].[moe](A)[sp].[moe](C)}$$$$V2.0,70% and 68%,
RNA1{[moe](C)[sp].[moe](C)[sp].[moe](G)[sp].[moe](C)[sp].d(A)[sp].d(G)[sp].d(T)[sp].d(A)[sp].d(T)[sp].d(G)[sp].d(G)[sp].d(A)[sp].d(T)[sp].[moe](C)[sp].[moe](G)[sp].[moe](G)}$$$$V2.0,76% and 71%,
